“Also recorded” adds a separate entry of the source. Where two headings read alike, the source gives them in different places.
What was measured:
MAO-A = test system: MAO-A; parameters: method as in PMID 24140951; settings: control of MAO-A inhibition; cited from earlier work
[1] = target: T1, Human monoamine oxidase A (Homo sapiens, UniProt P21397); assay: Kinetic analysis of MAO-A inhibition (KM, Vmax, apparent Ki); type: biochemical; settings: for Note: type of inhibition approached (MAO-A): for mixed inhibitors; for Inhibition Type (MAO-A): kynuramine 25–150 µM, two fixed inhibitor concentrations; for Ki: apparent Ki, mean ± SE (n)
T1 construct: purchased Sigma-Aldrich (Milan, Italy)
T1 sequence (P21397 1-527): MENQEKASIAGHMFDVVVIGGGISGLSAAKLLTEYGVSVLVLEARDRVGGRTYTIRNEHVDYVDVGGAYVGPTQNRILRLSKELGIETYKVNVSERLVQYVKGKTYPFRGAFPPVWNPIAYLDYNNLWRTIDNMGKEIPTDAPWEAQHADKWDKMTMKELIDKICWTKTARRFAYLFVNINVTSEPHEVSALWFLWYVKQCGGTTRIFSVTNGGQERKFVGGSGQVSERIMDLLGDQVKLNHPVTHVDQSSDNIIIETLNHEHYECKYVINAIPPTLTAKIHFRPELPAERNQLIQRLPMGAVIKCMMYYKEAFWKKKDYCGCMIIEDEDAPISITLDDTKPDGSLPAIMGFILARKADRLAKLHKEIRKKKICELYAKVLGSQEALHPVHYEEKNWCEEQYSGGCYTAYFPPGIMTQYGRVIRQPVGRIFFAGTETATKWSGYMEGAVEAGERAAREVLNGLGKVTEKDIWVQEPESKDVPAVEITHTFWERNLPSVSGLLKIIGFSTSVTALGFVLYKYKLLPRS
Protocol: (§1) Monoamine oxidase activity was assayed by the fluorimetric method, as previously reported. This method, based on the monoamine oxidase oxidation of its non-selective substrate kynuramine, led to the production of […], which becomes fluorescent in alkaline conditions. In steady-state measurements of MAO activity, the reaction mixture (250 µL), prepared in a 50 mM potassium phosphate buffer, pH 7.1 (buffer A), contained 40 μM kynuramine in the absence or presence of the indicated concentration of the inhibitor. The DMSO concentration carried over by the inhibitor was 0.5% (v/v), and an identical concentration of DMSO was used in the absence of the inhibitor. The reaction started with the addition of 3.75 μg monoamine oxidase A or B and lasted 20 min. The reaction was stopped by adding 150 μL of 2 M NaOH and, after 10 min of incubation at room temperature, 240 μL of water. After centrifugation (10 min at 15,000 rpm), the fluorescence signal was measured on 500 μL of supernatant using a Cary Eclipse Spectrofluorimeter (Agilent Technologies, Milan, Italy) at room temperature (20–25 °C). Excitation and emission wavelengths of 315 and 380 nm, respectively, were employed; slits were set to 10 nm for both the excitation and emission beams.
(§2) The kinetic parameters KM and Vmax for MAO and XO substrates were obtained through kinetic measurements of these activities performed at different substrate concentrations, either in the absence or in the presence of two fixed concentrations of the various inhibitors. […] Each assay was realized as reported above, and the values of the initial velocity (vi) of the reaction were evaluated under the various experimental conditions. The data of vi were nonlinearly fitted according to the Michaelis–Menten equation or analyzed by the Lineweaver–Burk equation in order to derive the kinetic parameters in the absence (KM and Vmax) or in the presence (K’M and V’max) of the inhibitor.
(§3) The inhibition power of the various compounds and their inhibition mechanisms were evaluated. […] However, an apparent inhibition constant (K’i) was calculated at each inhibitor concentration using the equations hereafter reported, depending on the type of inhibition tentatively approached from the experimental data:K’i = V’max × [I]/(Vmax − V’max)(1) K’i = KM × [I]/(K’M − KM)(2) K’i = K’M × [I]/(KM − K’M)(3)
(§4) The K’i values obtained at different inhibitor concentrations were then averaged to obtain a unique value of apparent Ki for each compound.

[2] = target: T2, Human monoamine oxidase B (Homo sapiens, UniProt P27338); assay: Kinetic analysis of MAO-B inhibition (KM, Vmax, apparent Ki); type: biochemical; settings: for Note: type of inhibition approached (MAO-B): for mixed inhibitors; for Inhibition Type (MAO-B): kynuramine 25–150 µM, two fixed inhibitor concentrations; for Ki: apparent Ki, mean ± SE (n)
T2 construct: purchased Sigma-Aldrich (Milan, Italy)
T2 sequence (P27338 1-520): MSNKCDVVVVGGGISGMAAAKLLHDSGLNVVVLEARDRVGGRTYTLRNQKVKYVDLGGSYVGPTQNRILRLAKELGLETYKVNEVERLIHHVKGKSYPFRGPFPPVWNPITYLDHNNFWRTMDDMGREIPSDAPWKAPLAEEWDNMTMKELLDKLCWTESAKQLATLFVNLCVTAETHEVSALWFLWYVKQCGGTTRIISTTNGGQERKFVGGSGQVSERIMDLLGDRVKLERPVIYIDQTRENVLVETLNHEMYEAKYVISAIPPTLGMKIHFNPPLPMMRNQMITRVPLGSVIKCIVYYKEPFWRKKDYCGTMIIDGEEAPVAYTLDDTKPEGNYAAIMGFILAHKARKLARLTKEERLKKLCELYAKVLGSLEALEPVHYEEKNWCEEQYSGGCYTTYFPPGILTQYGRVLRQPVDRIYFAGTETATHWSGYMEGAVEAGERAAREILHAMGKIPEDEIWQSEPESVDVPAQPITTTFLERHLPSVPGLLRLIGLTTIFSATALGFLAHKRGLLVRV
Protocol: as §1, §2, §3, §4

[3] = target: T2, Human monoamine oxidase B; assay: Steady-state MAO-B activity, fluorimetric kynuramine assay; type: biochemical; settings: 40 μM kynuramine, 20 min, pH 7.1; mean ± SD (n); from semilogarithmic plot
Protocol: as §1

[4] = target: T1, Human monoamine oxidase A; assay: Steady-state MAO-A activity, fluorimetric kynuramine assay; type: biochemical; settings: 40 μM kynuramine, 20 min, pH 7.1; mean ± SD (n); from semilogarithmic plot
Protocol: as §1, with “The reaction started with the addition of 3.75 μg monoamine oxidase A or B and lasted 20 min.” left out, “°C).” for “°C). Excitation and emission wavelengths of 315 and 380 nm, respectively, were employed; slits were set to 10 nm for both the excitation and emission beams.”

[5] = target: T3, bovine milk xanthine oxidase (Bos taurus, UniProt P80457); assay: Steady-state xanthine oxidase activity, spectrophotometric assay; type: biochemical; settings: for IC50: read-out: IC50 XO inhibition; for Inhibition of XO activity (in words): steady-state, concentration series
T3 construct: bovine milk xanthine oxidase; purchased Sigma-Aldrich (Milan, Italy); host or cells: bovine milk
T3 sequence (P80457 whole entry): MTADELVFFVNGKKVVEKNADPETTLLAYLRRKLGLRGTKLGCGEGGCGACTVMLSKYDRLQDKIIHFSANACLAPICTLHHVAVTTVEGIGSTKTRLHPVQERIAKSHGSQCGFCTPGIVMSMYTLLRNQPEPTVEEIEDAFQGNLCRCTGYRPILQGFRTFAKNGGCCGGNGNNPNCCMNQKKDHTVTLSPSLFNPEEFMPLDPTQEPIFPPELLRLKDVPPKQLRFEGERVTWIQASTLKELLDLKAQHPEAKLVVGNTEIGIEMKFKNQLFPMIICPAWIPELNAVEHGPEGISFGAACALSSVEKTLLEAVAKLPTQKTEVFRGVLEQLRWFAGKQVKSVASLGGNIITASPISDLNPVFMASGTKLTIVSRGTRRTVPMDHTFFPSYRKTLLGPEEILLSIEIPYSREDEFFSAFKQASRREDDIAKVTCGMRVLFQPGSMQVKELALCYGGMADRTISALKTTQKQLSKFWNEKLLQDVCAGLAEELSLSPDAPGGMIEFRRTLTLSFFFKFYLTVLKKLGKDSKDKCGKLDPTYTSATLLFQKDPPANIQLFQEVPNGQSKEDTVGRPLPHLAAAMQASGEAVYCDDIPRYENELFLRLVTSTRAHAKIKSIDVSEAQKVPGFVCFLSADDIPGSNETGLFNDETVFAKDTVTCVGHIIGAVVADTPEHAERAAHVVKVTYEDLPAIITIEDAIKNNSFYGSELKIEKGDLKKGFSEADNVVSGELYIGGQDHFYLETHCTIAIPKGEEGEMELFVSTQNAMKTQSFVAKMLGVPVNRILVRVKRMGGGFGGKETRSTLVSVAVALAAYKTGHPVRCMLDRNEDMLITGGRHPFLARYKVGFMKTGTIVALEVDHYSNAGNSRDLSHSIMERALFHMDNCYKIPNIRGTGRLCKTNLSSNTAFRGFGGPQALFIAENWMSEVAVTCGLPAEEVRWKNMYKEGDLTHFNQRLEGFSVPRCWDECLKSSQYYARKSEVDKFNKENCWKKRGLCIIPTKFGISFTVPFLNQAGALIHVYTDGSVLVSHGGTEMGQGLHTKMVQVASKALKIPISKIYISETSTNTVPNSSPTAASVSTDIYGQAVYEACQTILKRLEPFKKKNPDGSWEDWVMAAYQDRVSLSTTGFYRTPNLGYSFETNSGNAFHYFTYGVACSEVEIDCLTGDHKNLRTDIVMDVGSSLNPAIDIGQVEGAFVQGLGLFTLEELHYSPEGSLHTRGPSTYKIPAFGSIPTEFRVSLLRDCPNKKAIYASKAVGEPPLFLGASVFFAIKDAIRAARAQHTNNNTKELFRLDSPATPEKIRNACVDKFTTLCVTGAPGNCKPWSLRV
Protocol: Xanthine oxidase activity was assayed through a spectrophotometric method, essentially as previously reported. […] The DMSO concentration carried over by the inhibitor was 1% (v/v), and an identical concentration of DMSO was used in the absence of the inhibitor. The reaction started with the addition of XO and was followed kinetically for up to 30 s. The initial rate of uric acid formation was expressed as ΔE/min. The effect of each inhibitor in the XO assay was evaluated, and the data were treated as previously indicated for the MAO assay, including the extrapolation of the IC50 values.

XO = test system: XO; parameters: method as in PMID 16450295; settings: cited from earlier work
[6] = target: T3, bovine milk xanthine oxidase; assay: Kinetic analysis of xanthine oxidase inhibition; type: biochemical
Protocol: Xanthine oxidase activity was assayed through a spectrophotometric method, essentially as previously reported. In particular, the oxidation of xanthine to uric acid catalyzed by XO was monitored with a Cary 100 UV-Vis Spectrophotometer (Agilent Technologies, Milan, Italy) at 25 °C, thanks to the increase in absorbance at 295 nm due to uric acid formation. In steady-state measurements of XO activity, the assay was carried out in a 500-μL final volume reaction mixture containing 100 mM phosphate buffer, pH 7.8 plus 0.1 mM EDTA (buffer B), 75 μM xanthine, and different concentrations of the various inhibitors. The DMSO concentration carried over by the inhibitor was 1% (v/v), and an identical concentration of DMSO was used in the absence of the inhibitor. The reaction started with the addition of XO and was followed kinetically for up to 30 s. The initial rate of uric acid formation was expressed as ΔE/min. The effect of each inhibitor in the XO assay was evaluated, and the data were treated as previously indicated for the MAO assay, including the extrapolation of the IC50 values.
as §2
The inhibition power of the various compounds and their inhibition mechanisms were evaluated. […]

[7] = read-out: Ki, Calculated from KM Increase (MAO-A)
[8] = read-out: Ki, Calculated from KM Increase (MAO-B)
[9] = 75 μM xanthine, pH 7.8, 25 °C, mean ± SE (n), extrapolated from semilogarithmic plot
[10] = uncompetitive, read-out: Ki, average value from Vmax or KM decrease (MAO-B)

| SMILES | Note: type of inhibition approached (MAO-A) [1] | Inhibition Type (MAO-A) [1] | Note: type of inhibition approached (MAO-B) [2] | Inhibition Type (MAO-B) [2] | IC50 [3] | Ki [1, 7] | Ki [2, 8] | IC50 [4] | IC50 [5, 9] | other results |
| --- | --- | --- | --- | --- | --- | --- | --- | --- | --- | --- |
| C#CCN(C)CCCOc1ccc(Cl)cc1Cl [Clorgyline, clorgyline] |  |  |  |  |  |  |  |  |  | Inhibition Type (MAO-A) (MAO-A): Inactivator [52] |
| COc1cc2c(cc1OC)C(=O)C(CC1CCN(Cc3ccccc3)CC1)C2 (stereo not drawn) [Donepezil, donepezil, reference compound] | approaching noncompetitive | mixed | approaching competitive | mixed |  |  |  |  |  |  |
| O=C(OCCc1ccc(O)c(O)c1)C1CCN(Cc2ccccc2)CC1 [HT1, 3,4-dihydroxyphenetyl 1-benzylpiperidine-4-carboxylate] | approaching competitive | mixed |  | competitive | 125 ± 28 µM | 39.7 ± 14.3 µM | 163 ± 28 µM | 54.1 ± 6.9 µM | 454 ± 22 µM |  |
| COc1cc(CCOC(=O)C2CCN(Cc3ccccc3)CC2)ccc1OC(C)=O [HT3a] |  | uncompetitive | approaching competitive | mixed | 174 ± 80 µM |  | 190 ± 37 µM | 44.3 ± 14.4 µM | 282 ± 37 µM | Ki ([1]; uncompetitive, read-out: Ki, average value from Vmax or KM decrease (MAO-A)): 80.5 ± 30.4 µM |
| CC(=O)Oc1ccc(CCOC(=O)C2CCN(Cc3ccccc3)CC2)cc1 [HT4a] | approaching competitive | mixed |  | competitive | 86 ± 24 µM | 15.6 ± 4.2 µM | 20.7 ± 2.8 µM | 57 ± 18.2 µM | 438 ± 6 µM |  |
| O=C(OCCc1ccc(O)cc1)C1CCN(Cc2ccccc2)CC1 [HT4, 4-hydroxyphenethyl 1-benzylpiperidine-4-carboxylate] | approaching competitive | mixed |  | uncompetitive | 106 ± 22 µM | 6.1 ± 1.6 µM |  | 14.3 ± 2.2 µM | 605 ± 35 µM | Ki [2, 10]: 128 ± 45 µM |
| COc1cc(CCOC(=O)C2CCN(Cc3ccccc3)CC2)ccc1O [HT3, 4-hydroxy-3-methoxyphenethyl 1-benzylpiperidine-4-carboxylate] | approaching competitive | mixed | approaching competitive | mixed | 171 ± 44 µM | 7.6 ± 3.7 µM | 115 ± 50 µM | 23.4 ± 6.3 µM | 361 ± 1 µM |  |
| Oc1ncnc2[nH]ncc12 [Allopurinol, allopurinol] |  |  |  |  |  |  |  |  |  | Inhibition Type (XO) (XO): Competitive [53]; Ki (XO): 1.8 µM |
| O=C(OCCc1cc(O)c(O)cc1[N+](=O)[O-])C1CCN(Cc2ccccc2)CC1 [HT2, 4,5-dihydroxy-2-nitrophenethyl 1-benzylpiperidine-4-carboxylate] |  | noncompetitive |  | uncompetitive | 184 ± 48 µM |  |  | 322 ± 58 µM | 109 ± 20 µM | Note: type of inhibition approached (XO) [6]: approaching competitive; Ki ([6]; apparent Ki, mean ± SE (n), read-out: Ki Calculated from KM Increase (XO)): 63 ± 8 µM; Inhibition Type (XO) ([6]; xanthine 4–30 µM, 75 or 100 µM HT2): mixed-type; Ki ([1]; read-out: Ki, Calculated from Vmax Decrease (MAO-A)): 398 ± 56 µM; Ki [2, 10]: 186 ± 98 µM; Inhibition of XO activity (in words) [5]: clearly evident concentration-dependent inhibition |
| CC(=O)Oc1ccc(CCOC(=O)C2CCN(Cc3ccccc3)CC2)cc1OC(C)=O [HT1a] | approaching competitive | mixed | approaching competitive | mixed | 85 ± 33 µM | 36.5 ± 13.2 µM | 37.9 ± 13.1 µM | 50.8 ± 11 µM |  | IC50 XO inhibition [5, 9]: no inhibition; Inhibition of XO activity (in words) [5]: almost ineffective; also recorded: essentially no inhibition |

Source: PMC10819651 (Molecules, 2024)
